{"source": "paper PMC12392035", "about": "“Development of Carborane-Based Benzothiazole Analogues as Cannabinoid Receptor Type 2 (CB2R) Ligands” (ACS Omega, 2025)", "data": [{"biological_target": "T1, human CB2R (cannabinoid receptor type 2) (Homo sapiens, UniProt P34972)", "T1 construct": "gene CNR2; stably transfected in CHO cells; crude membrane homogenates", "T1 sequence (P34972 whole entry)": "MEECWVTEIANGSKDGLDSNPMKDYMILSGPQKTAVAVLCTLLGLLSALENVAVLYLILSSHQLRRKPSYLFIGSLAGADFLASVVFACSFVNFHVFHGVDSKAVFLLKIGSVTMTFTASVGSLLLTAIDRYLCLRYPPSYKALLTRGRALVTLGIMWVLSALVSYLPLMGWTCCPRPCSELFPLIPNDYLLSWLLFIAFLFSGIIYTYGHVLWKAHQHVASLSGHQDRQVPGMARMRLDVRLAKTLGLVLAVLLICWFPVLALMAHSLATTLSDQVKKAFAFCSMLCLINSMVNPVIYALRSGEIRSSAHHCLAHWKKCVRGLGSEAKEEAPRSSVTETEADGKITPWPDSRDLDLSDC", "assay": "competitive radioligand binding, CHO membranes", "conditions": "[3H]WIN55212-2 displacement; mean of two values; read-out: KiCB2R (nM) mean ^a", "description": "competitive radioligand binding, CHO membranes on human CB2R (cannabinoid receptor type 2)", "units": {"Ki": "nM"}, "values": [{"substance": "(Z)-N-(6-Methoxy-3-(2-methoxyethyl)-benzo[d]-thiazol-2(3H)-ylidene)(1,12-closo-dicarba-dodecaborane)-carboxamide [2p]", "Ki": 3.17}, {"substance": "(Z)-N-(6-Methoxy-3-(2-methoxyethyl)-benzo[d]-thiazol-2(3H)-ylidene)(1,7-closo-dicarba-dodecaborane)-carboxamide [2m]", "Ki": 2.47}, {"substance": "(Z)-N-(6-Methoxy-3-(2-methoxyethyl)-benzo[d]-thiazol-2(3H)-ylidene)(1,2-closo-dicarba-dodecaborane)-carboxamide [2o]", "Ki": 7.37}]}, {"biological_target": "T2, human CB1R (cannabinoid receptor type 1) (Homo sapiens, UniProt P21554)", "T2 construct": "gene CNR1; stably transfected in CHO cells; crude membrane homogenates", "T2 sequence (P21554 whole entry)": "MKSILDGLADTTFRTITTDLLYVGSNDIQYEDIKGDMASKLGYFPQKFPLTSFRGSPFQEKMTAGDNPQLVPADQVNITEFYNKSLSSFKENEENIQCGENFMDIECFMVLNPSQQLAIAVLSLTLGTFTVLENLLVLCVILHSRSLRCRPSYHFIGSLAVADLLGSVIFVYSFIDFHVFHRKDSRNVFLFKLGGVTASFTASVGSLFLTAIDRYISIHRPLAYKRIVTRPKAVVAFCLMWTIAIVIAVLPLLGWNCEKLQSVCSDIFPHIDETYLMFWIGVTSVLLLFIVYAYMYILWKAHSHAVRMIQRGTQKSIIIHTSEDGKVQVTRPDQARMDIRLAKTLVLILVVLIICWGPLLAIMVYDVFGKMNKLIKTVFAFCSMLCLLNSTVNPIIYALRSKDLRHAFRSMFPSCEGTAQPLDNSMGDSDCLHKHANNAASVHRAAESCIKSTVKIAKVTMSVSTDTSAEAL", "assay": "competitive radioligand binding, CHO membranes", "conditions": "[3H]SR141716A displacement; mean of two values; read-out: KiCB1R (nM) mean ^a", "description": "competitive radioligand binding, CHO membranes on human CB1R (cannabinoid receptor type 1)", "units": {"Ki": "nM"}, "values": [{"substance": "(Z)-N-(6-Methoxy-3-(2-methoxyethyl)-benzo[d]-thiazol-2(3H)-ylidene)(1,12-closo-dicarba-dodecaborane)-carboxamide [2p]", "Ki": 8670}, {"substance": "(Z)-N-(6-Methoxy-3-(2-methoxyethyl)-benzo[d]-thiazol-2(3H)-ylidene)(1,7-closo-dicarba-dodecaborane)-carboxamide [2m]", "Ki": 42300}, {"substance": "(Z)-N-(6-Methoxy-3-(2-methoxyethyl)-benzo[d]-thiazol-2(3H)-ylidene)(1,2-closo-dicarba-dodecaborane)-carboxamide [2o]", "Ki": 76800}]}]}
